Laboratory results from US5212286A, “Atrial Natriuretic/vasodilator peptide compounds” (Scios Nova Inc., priority 1986, dated 1993).
Positions of bridges follow the written chain, without caps; N, C: chain ends. Non-standard residues stand in square brackets, D forms with d. Residues, ends and D or L forms follow the SMILES beside them.

Legend:
intact rats = assay: Natriuretic and diuretic effects in intact rats (bolus injection); format: in vivo, rat
Procedure: Synthetic ANVP compounds […] hANVP(127-151) were also found to be natriuretic in the intact rat. These compounds were administered as a bolus injection to Inactin anesthetized rats (100 mg/kg, average weight 399 g) which were maintained on a constant infusion of normal saline at 2.2 ml/hr. […] Data are expressed as mean±SE.

[1] = test system: precontracted rabbit or rat aortic preparations; assay: Vasorelaxant potency on precontracted aortic rings; conditions: for vasorelaxant potency in words: precontracted vascular preparations; for IC50: thoracic aortic segments precontracted with histamine or norepinephrine, read-out: IC50 (concentration producing half-maximal relaxation of the precontracted tissue)
Procedure: Synthetic ANVP compounds were compared to partially purified (gel filtration step) and purified (HPLC) native ANVP compounds (See FIGS. 3A-D) for their ability to relax histamine-contracted aortic rings. Rings were suspended in 10 ml aerated Kreb's buffer under 1.5 gm passive tension. Rings were precontracted with 5 X 10^-6 M histamine, washed and allowed to return to baseline tension, as described ([…]., supra). Increasing amounts of purified or synthetic ANVP compounds were then added in cumulative fashion. […] The relaxation effects of various ANVP compounds on precontracted rabbit or rat aortic preparations are shown in Table III. | Thoracic aortic segments were precontracted with histamine or | norepinephrine as previously described. Various doses of ANVP compounds | were then added and relaxation of the precontracted state was monitored. | Data are expressed as the concentration of each peptide required to | produce a halfmaximal relaxation of the precontracted tissue (IC50).

SMILES | IC50 [1] [nM] | Peak Na+ Excr. (intact rats; dose 3670 pmol/kg) [µmol/min] | Peak Urine Vol. (intact rats; dose 3670 pmol/kg) [µL/min] | vasorelaxant potency in words [1] | diuresis and natriuresis in intact rats, in words (intact rats; Table VII doses) | Peak Na+ Excr. (intact rats; dose 367 pmol/kg) [µmol/min] | Peak Urine Vol. (intact rats; dose 367 pmol/kg) [µL/min]
CC[C@H](C)[C@@H]1NC(=O)[C@H](CCCNC(=N)N)NC(=O)[C@H](CC(=O)O)NC(=O)[C@H]([C@@H](C)CC)NC(=O)[C@H](CCCNC(=N)N)NC(=O)CNC(=O)[C@@H](C)NC(=O)[C@H](Cc2ccccc2)NC(=O)[C@@H](NC(=O)[C@H](CO)NC(=O)[C@H](CO)NC(=O)[C@@H](N)CCCNC(=N)N)CSSC[C@@H](C(=O)N[C@@H](CC(N)=O)C(=O)N[C@@H](CO)C(=O)N[C@@H](Cc2ccccc2)C(=O)N[C@@H](CCCNC(=N)N)C(=O)N[C@@H](Cc2ccc(O)cc2)C(=O)O)NC(=O)CNC(=O)[C@H](CC(C)C)NC(=O)[C@@H](C)NC(=O)[C@H](CO)NC(=O)[C@H](CCC(N)=O)NC(=O)[C@H](C)NC(=O)CNC1=O [[D-Ala^131][D-Ala^142]rANVP(126-150), H-Arg-Ser-Ser-Cys-Phe-[D-Ala]Gly-Arg-Ile-Asp-Arg-Ile-Gly-Ala-Gln-Ser-[D-Ala]-Leu-Gly-Cys-Asn-Ser-Phe-Arg-Tyr-OH] (H-RSSCF[dA]GRIDRIGAQS[dA]LGCNSFRY-OH; disulfide 4-20) | – | 140 ± 8 | 30 ± 7 | – | – | – | –
CC[C@H](C)[C@@H]1NC(=O)[C@H](CCCNC(=N)N)NC(=O)[C@H](CC(=O)O)NC(=O)[C@H]([C@@H](C)CC)NC(=O)[C@H](CCCNC(=N)N)NC(=O)[C@@H](C)NC(=O)CNC(=O)[C@H](Cc2ccccc2)NC(=O)[C@@H](NC(=O)[C@H](CO)NC(=O)[C@H](CO)NC(=O)[C@@H](N)CCCNC(=N)N)CSSC[C@@H](C(=O)N[C@@H](CC(N)=O)C(=O)N[C@@H](CO)C(=O)N[C@@H](Cc2ccccc2)C(=O)N[C@@H](CCCNC(=N)N)C(=O)N[C@@H](Cc2ccc(O)cc2)C(=O)O)NC(=O)CNC(=O)[C@H](CC(C)C)NC(=O)CNC(=O)[C@H](CO)NC(=O)[C@H](CCC(N)=O)NC(=O)[C@H](C)NC(=O)CNC1=O [[D-Ala^132]rANVP(126-150), H-Arg-Ser-Ser-Cys-Phe-Gly-[D-Ala]-Arg-Ile-Asp-Arg-Ile-Gly-Ala-Gln-Ser-Gly-Leu-Gly-Cys-Asn-Ser-Phe-Arg-Tyr-OH] | – | 20 ± 5 | 89 | – | – | – | –
CC[C@H](C)[C@@H]1NC(=O)[C@H](CCCNC(=N)N)NC(=O)[C@H](CC(=O)O)NC(=O)[C@H]([C@@H](C)CC)NC(=O)[C@H](CCCNC(=N)N)NC(=O)[C@@H]2CCCN2C(=O)CNC(=O)[C@H](Cc2ccccc2)NC(=O)[C@@H](NC(=O)[C@H](CO)NC(=O)[C@H](CO)NC(=O)[C@@H](N)CCCNC(=N)N)CSSC[C@@H](C(=O)N[C@@H](CC(N)=O)C(=O)N[C@@H](CO)C(=O)N[C@@H](Cc2ccccc2)C(=O)N[C@@H](CCCNC(=N)N)C(=O)N[C@@H](Cc2ccc(O)cc2)C(=O)O)NC(=O)CNC(=O)[C@H](CC(C)C)NC(=O)CNC(=O)[C@H](CO)NC(=O)[C@H](CCC(N)=O)NC(=O)[C@H](C)NC(=O)CNC1=O [[Pro^132]rANVP(126-150), H-Arg-Ser-Ser-Cys-Phe-Gly-Pro-Arg-Ile-Asp-Arg-Ile-Gly-Ala-GLn-Ser-Gly-Leu-Gly-Cys-Asn-Ser-Phe-Arg-Tyr-OH] | 3.25 | 56 ± 20 | 10.5 ± 2 | – | – | – | –
CC[C@H](C)[C@@H]1NC(=O)[C@H](CCCNC(=N)N)NC(=O)[C@H](CC(=O)O)NC(=O)[C@H]([C@@H](C)CC)NC(=O)[C@H](CCCNC(=N)N)NC(=O)CNC(=O)CNC(=O)[C@H](Cc2ccccc2)NC(=O)[C@@H](NC(=O)[C@H](CO)NC(=O)[C@H](CO)NC(=O)[C@@H](N)CCCNC(=N)N)CSSC[C@@H](C(=O)N[C@@H](CC(N)=O)C(=O)N[C@@H](CO)C(=O)N[C@@H](Cc2ccccc2)C(=O)N[C@@H](CCCNC(=N)N)C(=O)N[C@@H](Cc2ccc(O)cc2)C(N)=O)NC(=O)CNC(=O)[C@H](CC(C)C)NC(=O)CNC(=O)[C@H](CO)NC(=O)[C@H](CCC(N)=O)NC(=O)[C@H](C)NC(=O)CNC1=O [rANVP(126-150)-NH2, H-Arg-Ser-Ser-Cys-Phe-Gly-Gly-Arg-Ile-Asp-Arg-Ile-Gly-Ala-Gln-Ser-Glyn-Leu- Gly-Cys-Asn-Ser-Phe-Arg-Tyr-NH2] | 0.8 | – | – | most potent | – | 57 | 11.2 ± 1.6

More lines, main results first:

IC50 [1] [nM] | SMILES | Peak Na+ Excr. (intact rats; dose 3670 pmol/kg) [µmol/min] | Peak Urine Vol. (intact rats; dose 3670 pmol/kg) [µL/min] | vasorelaxant potency in words [1] | diuresis and natriuresis in intact rats, in words (intact rats; Table VII doses) | Peak Na+ Excr. (intact rats; dose 367 pmol/kg) [µmol/min] | Peak Urine Vol. (intact rats; dose 367 pmol/kg) [µL/min]
0.9 | CC[C@H](C)[C@@H]1NC(=O)[C@H](CCCNC(=N)N)NC(=O)[C@H](CC(=O)O)NC(=O)[C@H]([C@@H](C)CC)NC(=O)[C@H](CCCNC(=N)N)NC(=O)CNC(=O)[C@@H](C)NC(=O)[C@H](Cc2ccccc2)NC(=O)[C@@H](NC(=O)[C@H](CO)NC(=O)[C@H](CO)NC(=O)[C@@H](N)CCCNC(=N)N)CSSC[C@@H](C(=O)N[C@@H](CC(N)=O)C(=O)N[C@@H](CO)C(=O)N[C@@H](Cc2ccccc2)C(=O)N[C@@H](CCCNC(=N)N)C(=O)N[C@@H](Cc2ccc(O)cc2)C(=O)O)NC(=O)CNC(=O)[C@H](CC(C)C)NC(=O)CNC(=O)[C@H](CO)NC(=O)[C@H](CCC(N)=O)NC(=O)[C@H](C)NC(=O)CNC1=O [[D-Ala^131]rANVP(126-150), H-Arg-Ser-Ser-Cys-Phe-[D-Ala]-Gly-Arg-Ile-Asp-Arg-Ile-Gly-Ala-Gln-Ser-Gly-Leu-Gly-Cys-Asn-Ser-Phe-Arg-Tyr-OH] | – | – | most potent | – | – | –
13 | CC[C@H](C)[C@@H]1NC(=O)[C@H](CCCNC(=N)N)NC(=O)[C@H](CC(=O)O)NC(=O)[C@@H](C(C)C)NC(=O)[C@H](CCCNC(=N)N)NC(=O)CNC(=O)CNC(=O)[C@H](Cc2ccccc2)NC(=O)[C@@H](NC(=O)[C@H](CO)NC(=O)[C@H](CO)NC(=O)[C@@H](N)CCCNC(=N)N)CSSC[C@@H](C(=O)N[C@@H](CC(N)=O)C(=O)N[C@@H](CO)C(=O)N[C@@H](Cc2ccccc2)C(=O)N[C@@H](CCCNC(=N)N)C(=O)N[C@@H](Cc2ccc(O)cc2)C(=O)O)NC(=O)CNC(=O)[C@H](CC(C)C)NC(=O)CNC(=O)[C@H](CO)NC(=O)[C@H](CCC(N)=O)NC(=O)[C@H](C)NC(=O)CNC1=O [[D-Val^134]rANVP(126-150), H-Arg-Ser-Ser-Cys-Phe-Gly-Arg-[D-Val]-Asp-Arg-Ile-Gly-Ala-Gln-Ser-Gly-Leu-Gly-Cys-Asn-Ser-Phe-Arg-Tyr-OH] | – | – | – | – | – | –
40 | CC[C@H](C)[C@@H]1NC(=O)[C@H](CCCNC(=N)N)NC(=O)CNC(=O)CNC(=O)[C@H](Cc2ccccc2)NC(=O)[C@@H](NC(=O)[C@H](CO)NC(=O)[C@H](CO)NC(=O)[C@@H](N)CCCNC(=N)N)CSSC[C@@H](C(=O)N[C@@H](CC(N)=O)C(=O)N[C@@H](CO)C(=O)N[C@@H](Cc2ccccc2)C(=O)N[C@@H](CCCNC(=N)N)C(=O)N[C@@H](Cc2ccc(O)cc2)C(=O)O)NC(=O)CNC(=O)[C@H](CC(C)C)NC(=O)CNC(=O)[C@H](CO)NC(=O)[C@H](CCC(N)=O)NC(=O)[C@H](C)NC(=O)CNC(=O)[C@@H](C(C)C)NC(=O)[C@H](CCCNC(=N)N)NC(=O)[C@H](CC(=O)O)NC1=O [[D-Val^137]rANVP(126-150), H-Arg-Ser-Ser-Cys-Phe-Gly-Gly-Arg-Ile-Asp-Arg-[D-Val]-Gly-Ala-Gln-Ser-Gly-Leu-Gly-Cys-Asn-Ser-Phe-Arg-Tyr-OH] | 0.54 ± 0.3 | 9.5 ± 5 | – | exceptions | – | –
